The data set deals with mammalian L-929 cells. In kind it is cell-based. The procedure: CCIC Huatongwei International Inspection (Suzhou) Co., Ltd. was entrusted to test the potential cytotoxic effect of a recombinant collagen M4 using mammalian L-929 cells cultured in vitro in accordance with method requirements of GB/T16886.5-2017. A test sample and a control sample were placed in a MEM medium including a 10% fetal bovine serum, and extracted in a 37°C incubator for 24 h. After the end of extraction, a cell medium is removed from ta 96-well plate (10^4 cells/well) cultured for 24 h, replaced with the corresponding extraction liquid, and cultured in a cell culture incubator (37°C, 5% CO2, humidity >90% ) for 24 h. After the end of culture, the morphology and lysis of a cell was observed under a microscope. The cytotoxicity value of a test sample was measured using a MTT method. […] After incubation for 24 h, the cell morphology of the extraction liquid with a 100% concentration of the test sample was basically intact, and a cell viability value was 83.6%. The recombinant collagen M4 had no potential cytotoxic effect under the cytotoxicity test conditions of a MTT method.

`CCN(CC)C(=S)[S-].CCN(CC)C(=S)[S-].[Zn+2]` [ZDEC]: the cytotoxic effect entry is “severe cytotoxic reaction”.

(Values after patent EP4567044A1, “HIGH-STABILITY RECOMBINANT COLLAGEN, AND CONSTRUCTION METHOD THEREFOR AND USE THEREOF” (Jiangsu Trautec Medical Technology Co., Ltd., priority 2022, dated 2024).)
